In US20250199015A1, “CYCLIN-DEPENDENT KINASE 2 INHIBITORS FOR MEDICAL TREATMENT” (INCYCLIX BIO, LLC, priority 2022, published 2025):
Converted amounts (≈) assume the structure as drawn. Where two headings read alike, the source gives them in different places.

Experiments:
MKN1 cells = test: Cell cycle by EdU flow cytometry with washout; type: cell-based, human; conditions: 300 nM, 24 hr post-initial treatment (0 hr after washout)
Experimental: The MKN1 human stomach carcinoma cell line was grown in RPMI-1640/1× Glutamax/10% heat inactivated fetal bovine serum and was plated at 300,000 cells/well in 6 cm tissue culture treated plates. […] At 24 hours, the remaining plates were rinsed with media before un-treated media was added back. Cells were collected at the indicated times, with 10 μM EdU added for the last hour (FIG. 21A). Cells were collected and fixed in 1% paraformaldehyde. Cells were incubated with Pacific blue azide dye as described by Thermo Scientific. Cells were then incubated with FarRed dye and RNase. Cells were analyzed on a BD Celesta and data compiled using FloJo and GraphPad. Approximately 95% of MKN1 cells were arrested at G1 at 24 hr post-initial treatment (0 hr after washout) (FIG. 21B). […] At 48 hr post-washout, MKN1 cells were synchronized.

[1] = tested on: OVCAR3 human ovary carcinoma CDX; test: OVCAR3 cell line-derived xenograft (tumor volume, body weight, tumor Western blot); type: in vivo, mice
Experimental: 10 million OVCAR3 human ovary carcinoma cells were injected into athymic nude female mice. The study was initiated at a mean tumor volume of approximately 100-200 mm^3. […] The test agents were delivered at 5 mL/kg by oral gavage.
Tumors from FIG. 146A were harvested at the end of study and snap frozen. A small piece of each tumor was removed while frozen and lysed with 150 μL cold RIPA with protease and phosphatase inhibitors while being homogenized with mortar and pestle. Lysates were clarified by centrifugation at 14 kxg for 10 min at 4° C. and supernatants transferred to clean tubes. A BCA assay was performed to determine the protein concentration of each lysate. 30 μg of protein was mixed with sample buffer and reducing agent before being run on a 4-12% SDS-PAGE. Protein was transferred to a nitrocellulose membrane and blocked with LI-COR blocking buffer for 1 hour. Membranes were incubated overnight in primary antibody at 4° C. Following 3 washes with TBST, membranes were incubated for 45 minutes in LI-COR secondary antibodies. Following 2 washes in TBST, and one TBS wash, membranes were scanned using a LI-COR OdysseyCLx. Image studio was used for image analysis.

MATE2-K = MATE2-K (Homo sapiens, UniProt Q86VL8); test: SLC transporter inhibition in HEK293 cells
γ-H2AX in H526 cells = test: γ-H2AX flow cytometry; type: cell-based, human
Experimental: The H526 human lung carcinoma cell line was grown in RPMI-1640/1× Glutamax/10% fetal bovine serum and was plated at 200,000 cells/well in Corning 6 cm tissue culture treated plates. Cells were incubated at 37° C. for 24 hours prior to addition of the first treatment. […] Cells were treated to 24 or 48 hours post-initial treatment, with 10 μM EdU added 1 hour prior to collection. Cells were collected and fixed in 1% paraformaldehyde. Cells were incubated with pacific blue azide dye as described by Thermo Scientific. Cells were then incubated with antibody against γ-H2AX at a ratio of 1:50 before incubation with FarRed dye and RNase. Cells were analyzed on a BD Celesta and data compiled using FloJo and GraphPad.
The H526 human lung carcinoma cell line was grown in RPMI-1640/1× Glutamax/10% fetal bovine serum and was plated at 200,000 cells/well in Corning 6 cm tissue culture treated plates. Cells were incubated at 37° C. for 24 hours prior to addition of the first treatment. […] Cells were treated to 24 hours post-initial treatment, with 10 μM EdU added at hour 23 (FIG. 28A). Cells were collected and fixed in 1% paraformaldehyde. Cells were incubated with pacific blue azide dye as described by Thermo Scientific. […] Cells were analyzed on a BD Celesta and data compiled using FloJo and GraphPad.

CYP1A2 transcription = test: CYP induction (transcription); type: in vitro ADME; conditions: up to 3 μM, 24 hours
γ-H2AX in Hs68 cells = test: γ-H2AX flow cytometry in normal fibroblasts; type: cell-based, human; conditions: 300 nM, alone or in combination with cisplatin, 24 hours
Experimental: The Hs68 Normal foreskin fibroblast cell line was grown in DMEM-high glucose/1× Glutamax/10% fetal bovine serum and was plated at 30,000 cells/well in Corning 6 well tissue culture treated plates. Cells were incubated at 37° C. for 24 hours prior to addition of the first treatment. […] Cells were treated to 24 hours post-initial treatment, with 10 μM EdU added at hour 23. Cells were collected and fixed in 1% paraformaldehyde. Cells were incubated with pacific blue azide dye as described by Thermo Scientific. Cells were then incubated with antibody against γ-H2AX at a ratio of 1:50 before incubation with FarRed dye and RNase. Cells were analyzed on a BD Celesta and data compiled using FloJo and GraphPad (FIG. 6).

[2] = Approximate solvent solubility of free base; type: physicochemical
Experimental: The following procedure was carried out: 25, 50 and 100 μL aliquots of the appropriate solvent system was added to 20 mg of free base. The experiments were checked for dissolution. Where dissolution was not observed, the experiments were stirred at 40° C. to check for dissolution at elevated temperature. Aliquots of solvent were added until dissolution was observed, or 2 mL of total solvent was added. Any clear solutions were uncapped and allowed to evaporate at ambient temperature (ca. 20° C.) and pressure. Any slurries were isolated by centrifugation and the solids were analyzed by XRPD.

Chain of MATE2-K (Q86VL8 1-566 isoform Q86VL8-3): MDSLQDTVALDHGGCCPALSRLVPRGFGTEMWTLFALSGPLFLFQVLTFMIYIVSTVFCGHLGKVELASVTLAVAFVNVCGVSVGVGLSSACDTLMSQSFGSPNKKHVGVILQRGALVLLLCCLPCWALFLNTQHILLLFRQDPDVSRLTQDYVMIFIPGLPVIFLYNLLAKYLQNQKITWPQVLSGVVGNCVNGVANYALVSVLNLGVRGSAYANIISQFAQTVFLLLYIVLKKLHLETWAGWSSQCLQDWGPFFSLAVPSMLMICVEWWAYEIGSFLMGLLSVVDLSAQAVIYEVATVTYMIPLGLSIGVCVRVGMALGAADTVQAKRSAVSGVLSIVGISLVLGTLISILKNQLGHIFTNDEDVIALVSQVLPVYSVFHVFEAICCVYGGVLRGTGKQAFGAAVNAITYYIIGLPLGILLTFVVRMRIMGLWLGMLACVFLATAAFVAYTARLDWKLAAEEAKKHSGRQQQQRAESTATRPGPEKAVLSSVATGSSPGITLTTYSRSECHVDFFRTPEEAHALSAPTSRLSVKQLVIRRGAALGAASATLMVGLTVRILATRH

With `NS(=O)(=O)c1ccc(Nc2ncc3cc4n(c3n2)C2(CCCCC2)C(=O)NN4)cc1` [Compound I] the “cells arrested at G1” value (MKN1 cells) was “Approximately 95%”, the tumor outcome ([1]; 100 mg/kg BID, 42 days) was “tumor stasis” and the TGI ([1]; 200 mg/kg QD, 42 days) was 89%. For the same compound, the tumor outcome ([1]; 100 mpk BID and 200 mpk QD, out to 42 days) was “durable tumor stasis or regression”, the “Rb1 phosphorylation and cyclin A2 levels in ex vivo tumor samples” value ([1]; 100 mpk BID, at least 24 hours post-final dose) was “substantially reduces Rb1 phosphorylation and cyclin A2 levels” and the body weight loss ([1]; at any point) was no more than 5%. The IC50 (MATE2-K) was 740 nM, the “Maximum Percent inhibition” value (MATE2-K; MATE2-K, HEK293 cells) was 69% and the IC50 (MATE2-K; human) was 740 nM. For the same compound, the “γ-H2AX signal, combination with cisplatin” value (γ-H2AX in H526 cells; 300 nM Compound I + 300 nM cisplatin) was “roughly double the signal”, the “γ-H2AX signal, Compound I alone” value (γ-H2AX in H526 cells; 30 to 1000 nM, 24 or 48 hours) was “increased yH2AX starting at 100 nM” and the “induction of CYP1A2 transcription” value (CYP1A2 transcription) was “no observed induction”. The “percent of γ-H2AX-positive cells” value (γ-H2AX in Hs68 cells) was “lower percent of γ-H2AX-positive cells compared with control”, the Solubility ([2]; 2-Methyl-THF) was less than 10 mg/mL and the Solubility ([2]; 2-Propanol) was less than 10 mg/mL. The Solubility ([2]; 2-Propanol:Water (80:20 % v/v)) was less than 10 mg/mL, the Solubility ([2]; Acetone) was less than 10 mg/mL and the Solubility ([2]; Anisole) was less than 10 mg/mL. For the same compound, the Solubility ([2]; Ethanol) was less than 10 mg/mL, the Solubility ([2]; Ethyl Acetate) was less than 10 mg/mL and the Solubility ([2]; Methylethyl Ketone) was less than 10 mg/mL. The Solubility ([2]; N,N-dimethylacetamide, organic solvent or mixture, thermodynamic from solid, read-out: Solubility) was 22 mg/mL (≈ 51.5 mM), the Solubility ([2]; Tetrahydrofuran) was less than 10 mg/mL and the Solubility ([2]; Toluene) was less than 10 mg/mL. It also gave a Solubility ([2]; dimethylsulfoxide, organic solvent or mixture, thermodynamic from solid, read-out: Solubility) of 88 mg/mL (≈ 206 mM).
